We go through three compounds from article PMC10122656, “Siglec-6 mediates the uptake of extracellular vesicles through a noncanonical glycolipid binding pocket” (Nature Communications, 2023).

Assay [1] relates to Daudi cells transduced with an empty vector. In words: pHrodo internalization assay by flow cytometry. The assay is classed as cell-based, human. To be noted: sheet Figure S42b. Background: Flow cytometry measures light scatter and fluorescence of single cells or particles in a stream.
Assay [2] addresses T1, CHO cells expressing Siglec-6 mutants (C46A, C172A, R to A mutants, F93A, L95A, G175M) (Homo sapiens, UniProt O43699, E173A).
T1 construct: These new CHO cell lines are the full-length versions of the Siglecs; expressed in transfected cells
Description: Cell assay (liposome/EV binding, flow cytometry). To be noted: sheet Figure S28b, 3% GM3-DAG liposomes, E173A. The assay is classed as cell-based. Here is the method: (§1) Mutations were introduced into each Siglec via gene overlap extension PCR mutagenesis (primers were ordered through IDT). Mutagenesis primers can be found in Supplementary Tables 2 and 3 for the critical arginine mutants of the entire Siglec family and the additional Siglec-6 mutants respectively.
(§2) 200,000 cells/well were plated into a 96-well U-bottom microplate and centrifuged at 300 × g for 5 min. The cells were then resuspended in 50 µL of 50 µM liposome/50 µg/mL (protein concentration) of EV solution in DMEM F12 5% FBS and incubated at 37 °C for 30 min. Excess liposomes were then removed via centrifuged at 300 × g for 5 min followed by washing the cells with FACS solution. The cells were then resuspended in (1:250 V/V) anti-Siglec-flow buffer (1% V/V FBS, 500 µM, EDTA Hank’s Balanced Salt Solution pH 7.4), solution and left to rest on ice for 30 min. The cells were then centrifuged again at 300 × g for 5 min and the cells were resuspended in FACS buffer solution and were then ready for analysis by flow cytometry. Information regarding antibody clone, catalog number supplier, label isotype, and dilution can be found in Supplementary Table 6. The Siglec-positive cells were gated on for liposome-binding analysis (Supplementary Fig. 1b).
(§3) Flow cytometry measurements were collected on a 5-laser Fortessa X-20 (BD Bioscience). All the resulting data were analyzed using FlowJo (10.5.3) software (BD Biosciences).

The target in assay [3] is T2, CHO cells expressing Siglec-6 mutants (C46A, C172A, R to A mutants, F93A, L95A, G175M) (Homo sapiens, UniProt O43699, Q174A).
T2 construct: These new CHO cell lines are the full-length versions of the Siglecs; expressed in transfected cells
T2 sequence (O43699 27-453 Q174A): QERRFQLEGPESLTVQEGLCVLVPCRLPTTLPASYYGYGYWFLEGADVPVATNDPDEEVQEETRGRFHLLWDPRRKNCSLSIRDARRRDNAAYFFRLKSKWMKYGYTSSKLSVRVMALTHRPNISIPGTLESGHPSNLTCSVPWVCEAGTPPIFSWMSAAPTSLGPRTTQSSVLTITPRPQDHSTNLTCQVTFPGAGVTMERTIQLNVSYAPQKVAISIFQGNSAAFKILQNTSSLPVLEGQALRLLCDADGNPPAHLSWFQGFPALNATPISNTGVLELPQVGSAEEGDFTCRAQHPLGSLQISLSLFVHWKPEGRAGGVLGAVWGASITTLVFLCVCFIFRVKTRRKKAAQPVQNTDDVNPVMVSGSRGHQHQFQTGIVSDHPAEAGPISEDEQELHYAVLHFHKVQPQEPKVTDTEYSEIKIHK
In words: Cell assay (liposome/EV binding, flow cytometry). The assay is classed as cell-based. The note with it: sheet Figure S28b, 3% GM3-DAG liposomes, Q174A. Here is the method: as §1, §2, §3

Assay [4] concerns the target T3, CHO cells expressing Siglec-6 mutants (C46A, C172A, R to A mutants, F93A, L95A, G175M) (Homo sapiens, UniProt O43699, E87A).
T3 construct: These new CHO cell lines are the full-length versions of the Siglecs; expressed in transfected cells
Description: Cell assay (liposome/EV binding, flow cytometry). The note with it: sheet Figure S28b, 3% GM3-DAG liposomes, E87A. The assay is classed as cell-based. The protocol:
as §1, §2, §3

The target in assay [5] is T4, CHO cells expressing Siglec-6 mutants (C46A, C172A, R to A mutants, F93A, L95A, G175M) (Homo sapiens, UniProt O43699, L95A).
T4 construct: These new CHO cell lines are the full-length versions of the Siglecs; expressed in transfected cells
T4 sequence (O43699 27-453 L95A): as the sequence (O43699 27-453 Q174A) above, with L69A, A148Q counted along it
In words: Cell assay (liposome/EV binding, flow cytometry). The format is cell-based. The note with it: sheet Figure S28b, 3% GM3-DAG liposomes, L95A. The protocol: as §1, §2, §3

Assay [6] has as its target T5, CHO cells expressing Siglec-6 mutants (C46A, C172A, R to A mutants, F93A, L95A, G175M) (Homo sapiens, UniProt O43699, R101A).
T5 construct: These new CHO cell lines are the full-length versions of the Siglecs; expressed in transfected cells
In words: Cell assay (liposome/EV binding, flow cytometry). The format is cell-based. The note with it: sheet Figure S26a, 3% GM3-DAG liposomes, R101A. The protocol: as §1, §2, §3

Assay [7] concerns the target T6, CHO cells expressing Siglec-6 mutants (C46A, C172A, R to A mutants, F93A, L95A, G175M) (Homo sapiens, UniProt O43699, F93A).
T6 construct: These new CHO cell lines are the full-length versions of the Siglecs; expressed in transfected cells
In words: Cell assay (liposome/EV binding, flow cytometry). The format is cell-based. To be noted: sheet Figure S28b, 3% GM3-DAG liposomes, F93A. Here is the method:
as §1, §2, §3

The target of assay [8] is T7, CHO cells expressing Siglec-6 mutants (C46A, C172A, R to A mutants, F93A, L95A, G175M) (Homo sapiens, UniProt O43699, R109A).
T7 construct: These new CHO cell lines are the full-length versions of the Siglecs; expressed in transfected cells
T7 sequence (O43699 27-453 R109A): as the sequence (O43699 27-453 Q174A) above, with R83A, A148Q counted along it
In words: Cell assay (liposome/EV binding, flow cytometry). The format is cell-based. The note with it: sheet Figure S26a, 3% GM3-DAG liposomes, R109A. Here is the method: as §1, §2, §3

Assay [9] deals with CHO cells expressing Siglec-6/8 chimeras. In words: Cell assay (liposome binding, flow cytometry). The format is cell-based, human. Here is the method: as §2, §3
The genes for the constructs containing each domain of Siglec-6 to the two others from Siglec-8 were synthesized by GeneArt and designed with a 5’ NheI and 3’ AgeI site immediately before the start codon and stop codon respectively. […]

The next assay addresses WT Siglec-6 (Homo sapiens, UniProt O43699). Description: Binding competition between GM1 GLLs and 5 nGLLs. The note with it: 1 mol% GM1 liposomes. From the text:
Supplementary Fig. 20: Binding competition between GM1 GLLs and 5 nGLLs against WT Siglec-6.
Binding of 1 mol% GM1 liposomes to WT Siglec-6 in the presence of an increasing concentration of 5 mol%
5 nGLLs. Data is presented with a representative flow cytometry histogram and was quantified as the mean
± one standard deviation of the median fluorescent intensity (MFI) from […] three technical replicates. A
Brown-Forsythe and Welch one-way ANOVA was used to compare the binding of liposomes formulated
(1 picture or pasted object on this page, not shown here)

Another assay addresses T8, R92K Siglec-6 CHO cells (Homo sapiens, UniProt O43699, R92K).
T8 construct: These new CHO cell lines are the full-length versions of the Siglecs; expressed in transfected cells
In words: Cell assay (liposome/EV binding, flow cytometry). The format is cell-based. Here is the method:
as §1
as §2, with “The Siglec-positive cells were gated on for liposome-binding analysis (Supplementary Fig. 1b).” left out
as §3

The next assay relates to LAD2 cells. In words: Liposome/EV binding to LAD2 cells by flow cytometry. The assay is classed as cell-based, human. The protocol:
as §2, §3
The LAD2 cell line (a gift from Arnold Kirshenbaum) was cultured in StemPro-34 SFM media (Life Technologies) supplemented with 2 mM L-glutamine, 100 U/ml penicillin, […] streptomycin, and 100 ng/ml recombinant human SCF (PeproTech, Rocky Hill, NJ). […]

Where “and” joins values, the source holds several entries; their conditions need not be identical. Identical values can stand only once.
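Throughout, for liposome binding, fluorescence signal (replicates): AF647 fluorescence intensity from 0.1 mol% AF647–PEG45–DSPE in liposomes.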

T6 sequence (O43699 27-453 F93A): as the sequence (O43699 27-453 Q174A) above, with F67A, A148Q counted along it
T3 sequence (O43699 27-453 E87A): as the sequence (O43699 27-453 Q174A) above, with E61A, A148Q counted along it
T8 sequence (O43699 27-453 R92K): as the sequence (O43699 27-453 Q174A) above, with R66K, A148Q counted along it
T5 sequence (O43699 27-453 R101A): as the sequence (O43699 27-453 Q174A) above, with R75A, A148Q counted along it
T1 sequence (O43699 27-453 E173A): as the sequence (O43699 27-453 Q174A) above, with E147A, A148Q counted along it
Sequence of WT Siglec-6 (O43699 27-453): as the sequence (O43699 27-453 Q174A) above, with A148Q counted along it

With GM3, the “liposome internalization signal (replicates)” value in [1] (Emp-4 (empty vector, 4)) was 6.1 and 7 and 8.7 and 6.3; in [1] (emp-37 (empty vector, 37)) it was 11.2 and 11.5 and 13.6 and 13.8.

Consider `CCCCCCCCCCCCCCCCOCC(COCCCCCCCCCCCCCCCC)OCc1cn(CCO[C@@H]2O[C@H](CO)[C@@H](O[C@@H]3O[C@H](CO)[C@H](O)[C@H](O[C@]4(C(=O)O)C[C@H](O)[C@@H](NC(C)=O)[C@H]([C@H](O)[C@H](O)CO)O4)[C@H]3O)[C@H](O)[C@H]2O)nn1` [GM3-DAG], for which the “liposome binding, fluorescence signal (replicates)” value was 1703 and 1773 and 1881 and 1652 in assay [2]; 1364 and 1584 and 1412 in assay [3]; 2391 and 2152 and 2127 in assay [4]; 497 and 522 and 557 and 567 in [5]; 5191 and 3671 and 4272 and 5125 in [6]; 1045 and 1034 and 1148 in assay [7]. In assay [8], the “liposome binding, fluorescence signal (replicates)” value was 3678 and 3427 and 3246 and 4185.

As for `CCCCCCCCCCCCCCCCOCC(COCCCCCCCCCCCCCCCC)OCc1cn(CCO[C@@H]2O[C@H](CO)[C@@H](O[C@@H]3O[C@H](CO)[C@H](O)[C@H](O[C@]4(C(=O)O)C[C@H](O)[C@@H](NC(C)=O)[C@H]([C@H](O)[C@H](O)CO)O4)[C@H]3O)[C@H](O)[C@H]2O)nn1` [nGL 5], in assay [9], the “5 liposome binding to chimeras with one individual Siglec-6 domain” value is “none of the three individual Siglec-6 domains supported binding” and the “5 nGLL binding to chimera with the first two domains of Siglec-6” value is “significantly above background”. The “binding of GM1 GLLs to WT Siglec-6 in presence of increasing concentration of 5 mol% 5 nGLLs” value at WT Siglec-6 was “decreased”. Further, the “5 liposome binding gated on identical Siglec-6 expression levels, MFI (Fig. S26e)” value at R92K Siglec-6 CHO cells (R92K Siglec-6, replicates) was 29.25 and 36.25 and 24.25. Further, the “5 nGLL binding to R92K Siglec-6 CHO cells” value on R92K Siglec-6 CHO cells (cell assay, expression 42% of WT) is given as “minimal binding”. Besides, in the assay on LAD2 cells, the “5 nGLL binding to LAD2 cells” value is reported as “bound robustly” and the “5 nGLL binding to LAD2 cells after pre-incubation with a Siglec-6 antibody” value is reported as “abrogated”.
